This is an account of results in PMC6270973, “Two New Phenolic Compounds from the Heartwood of Caesalpinia sappan L” (Molecules, 2013).

In series [1] the test system is nitric oxide production in LPS-activated BV-2 microglia. Description: Inhibition of NO production in LPS-stimulated BV-2 microglia. The class given is cell-based. The note with it: for inhibitory activity against nitric oxide production (in words): IC50 values lower than those of quercetin, the positive control. How it is done: Two new compounds and six known compounds caesalpin J (3), 1-hydroxy-7-methylxanthone (4), 1,5-dihydroxyxanthone (5), 1,7-dihydroxyxanthone (6), butein (7), and sappanone A (8) were evaluated for their inhibitory activities against nitric oxide production in LPS-activated BV-2 microglia according to a previously described method.
Cytotoxicity was determined with the MTT assay.

Series [2] concerns BV-2 microglia.
Protocol: (§1) Each compound was dissolved in DMSO and further diluted in the medium to produce different concentrations with a maximum concentration of 50 μM. The absorbance was measured at 570 nm with a Multilabel Plate Reader (Sunrise TECAN, Männedorf, Switzerland). Cytotoxicity was determined with the MTT assay. Quercetin (Sigma-Aldrich, Foster City, CA, USA) was used as the positive control.
Series [3] can be described thus: Cytotoxicity (cell viability) by MTT assay. The note with it: mouse, BV-2 microglia cells, Viability (at 50 µM, %), compound at 50 µM. (Formazan colour is commonly taken as a measure of viable cells.)
Protocol: as §1
For series [4], the system named is BV-2 microglia. Nature of the series: Cytotoxicity (cell viability) by MTT assay. To be noted: compound at 50 µM, 50 µM.
Protocol: as §1
Where [5] appears, read: LPS-activated BV-2 microglia, maximum concentration tested 50 μM, read-out: IC50 (µM), inhibition of NO production.
Where [6] appears, read: Mus musculus, BV-2, LPS-activated BV-2 microglia, maximum concentration tested 50 μM, read-out: IC50 (µM), inhibition of NO production.

Where two headings read alike, the source gives them in different places.

For 1-hydroxy-7-methylxanthone [Compound 4], the “inhibitory activity against nitric oxide production (in words)” value (“inhibitory activity” for short) in series [1] (LPS-activated BV-2 microglia) is “obvious inhibitory activity”. Besides, the IC50 – broadly, the concentration needed to halve the response being measured – in series [1] (setting [5]) was 14.2 µM. For the same compound, the “Viability (at 50 µM, %)” value in the series with BV-2 microglia [2] is reported as 98.94%.
For `CO[C@H]1[C@]2(O)COC3=CC(=O)C=C[C@@]31c1cc(O)c(O)cc1C2` [Compound 1, epicaesalpin J], the IC50 in series [1] (setting [6]) was found to be 52.6 µM. The viability (commonly a read-out of living cells in per cent, often relative to untreated cells) at 50 µM in series [3] is 96.5%.
For `O=C1C=CC23CC(O)(COC2=C1)Cc1cc(O)c(O)cc13` (stereo not drawn) [Compound 2, 7,10,11-trihydroxydracaenone] the same measures were 56.7 µM and 99.3%.
`CO[C@H]1[C@]2(O)COC3=CC(=O)C=C[C@@]31c1cc(O)c(O)cc1C2` [Compound 3, caesalpin J]: the IC50 in series [1] (setting [5]) worked out at 45.9 µM. Also, the “Viability (at 50 µM, %)” value in the series on BV-2 microglia [4] worked out at 96.13%.
For the compound `O=c1c2cccc(O)c2oc2cccc(O)c12` [Compound 5, 1,5-dihydroxyxanthone], the IC50 in series [1] (setting [6]) was determined as 28.7 µM. For the same compound, in series [3], the viability at 50 µM came to 101%.
Turning to `O=c1c2cc(O)ccc2oc2cccc(O)c12` [Compound 6, 1,7-dihydroxyxanthone], the “inhibitory activity” value in series [1] (LPS-activated BV-2 microglia) was “obvious inhibitory activity”. Besides, the IC50 in series [1] (Mus musculus, BV-2, read-out: IC50 (µM), inhibition of NO production) came out at 21.5 µM. In series [3], the viability at 50 µM worked out at 102%.
Regarding `O=C(/C=C/c1ccc(O)c(O)c1)c1ccc(O)cc1O` [Compound 7, butein], the “inhibitory activity” value in series [1] (LPS-activated BV-2 microglia) is “obvious inhibitory activity”. The half-inhibitory concentration (IC50) in series [1] (setting [6]) came out at 15.5 µM. Moreover, in series [3], the viability at 50 µM was determined as 94%.
Take `O=C1/C(=C/c2ccc(O)c(O)c2)COc2cc(O)ccc21` [Compound 8, sappanone A]: in series [1] (LPS-activated BV-2 microglia), the “inhibitory activity” value is “obvious inhibitory activity”. In series [1] (setting [6]), the IC50 was found to be 8.26 µM. Moreover, in series [3], the viability at 50 µM stood at 99.3%.
As to `O=c1c(O)c(-c2ccc(O)c(O)c2)oc2cc(O)cc(O)c12` [quercetin, reference compound], the 50% inhibitory concentration (IC50) in series [1] (setting [6]) was 23.4 µM.
